Source: patent publication USRE30456E, “2-Substituted phenyl-s-triazolo[5,1-a] isoquinoline compounds” (Gruppo Lepetit S.p.A., priority 1973, dated 1980)

Test system: carrageenin induced edema
Experiment: carrageenin test in rats (anti-inflammatory activity)
Assay type: in vivo
Description: The anti-inflammatory activity of some inventive compounds was evidenced by means of the carrageenin test in rats.

Compound | inhibition of the carrageenin induced edema (100 mg./kg. p.o.) | inhibition of the carrageenin induced edema (50 mg./kg. p.o.)
NC(=O)Nc1nc2n(n1)CCc1ccccc1-2 [Example 54, 2-Ureido-5,6-dihydro-s-triazolo[5,1-a]isoquinoline] | about 35% | –
Sc1nc2n(n1)CCc1ccccc1-2 [Example 38, 2-Sulfhydryl-5,6-dihydro-s-triazolo[5,1-a]isoquinoline] | – | about 35%
